Assays:
Format in all cases: in vitro ADME
[1] = Assay 2. Stability in Simulated Intestinal Fluid (SIF); settings: 1 μM, 37° C., SIF pH 6.7 with pancreatin
Method in brief: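 Degradation rate measured by LC/MS after acetonitrile quench of timed aliquots, starting at T0. Test compound 1 μM in simulated intestinal fluid (pH 6.7 phosphate buffer, FaSSIF powder, pancreatin), shaken at 37 °C.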

[2] = Assay 3. Fecal Incubation Stability; settings: 1 or 10 μM, human fecal slurry, anaerobic
Protocol: Assay 3. Fecal Incubation Stability. This assay was used to assess the stability of an acylated active agent in a large intestine. All experiments were performed in an anaerobic chamber containing 90% nitrogen, 5% hydrogen and 5% carbon dioxide. Human fecal matter in a slurry (15% WV) is added to 96 well plates containing YCFA media or other suitable media (1.6 mL). Compounds were added to each individual well to reach a final analyte concentration of 1 or 10 μM, and the material was mixed by pipetting. At set time points a sample was removed, quenched with acetonitrile, and analyzed by LC/MS.

[3] = Assay 1. Stability in Simulated Gastric Fluid (SGF); settings: 1 μM, 37° C., SGF pH 1.6 with pepsin
Method in brief: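 Simulated gastric fluid, prepared fresh as NaCl buffer at pH 1.6 with 0.1 mg/mL pepsin and FaSSIF powder, received test compound to 1 μM final and was held at 37 °C. LC/MS of acetonitrile-quenched samples, taken immediately and then periodically, gave degradation rates.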

## O=C(CCc1c[nH]c2ccccc12)O[C@@H]1O[C@H](C(=O)O)[C@@H](OC(=O)CCc2c[nH]c3ccccc23)[C@H](OC(=O)CCc2c[nH]c3ccccc23)[C@H]1OC(=O)CCc1c[nH]c2ccccc12 [Compound 82, (2S,3S,4S,5R,6S)-3,4,5,6-tetrakis({[3-(1H-indol-3-yl)propanoyl]oxy})oxane-2-carboxylic Acid]
[1]
  Assay 2 (SIF) (% @ Remaining 4 hours): A (A: <25% of the tested compound remaining)
[2]
  Assay 3 (% Remaining at 24 h): A (A: <25% of the tested compound remaining)

## CCCC(=O)OC[C@H]1O[C@H](OC)[C@H](OC(=O)CCC)[C@@H](OC(=O)CCC)[C@H]1OC(=O)CCC [Compound 89, [(2R,3S,4S,5R,6S)-3,4,5-tris(butanoyloxy)-6-methoxyoxan-2-yl]methyl Butanoate]
[1]
  Assay 2 (SIF) (% @ Remaining 4 hours): A (A: <25% of the tested compound remaining)
[2]
  Assay 3 (% Remaining at 24 h): A (A: <25% of the tested compound remaining)

## CCCC(=O)OC[C@H]1O[C@@H](OC)[C@H](OC(=O)CCC)[C@@H](OC(=O)CCC)[C@@H]1OC(=O)CCC [Compound 91, [(2R,3R,4S,5R,6R)-3,4,5-tris(butanoyloxy)-6-methoxyoxan-2-yl]methyl Butanoate]
[1]
  Assay 2 (SIF) (% @ Remaining 4 hours): A (A: <25% of the tested compound remaining)
[2]
  Assay 3 (% Remaining at 24 h): A (A: <25% of the tested compound remaining)

## CCC(=O)OC[C@H]1O[C@@H](OC)[C@H](OC(=O)CC)[C@@H](OC(=O)CC)[C@@H]1OC(=O)CC [Compound 92, [(2R,3R,4S,5R,6R)-6-methoxy-3,4,5-tris(propanoyloxy)oxan-2-yl]methyl Propanoate]
[1]
  Assay 2 (SIF) (% @ Remaining 4 hours): A (A: <25% of the tested compound remaining)
[2]
  Assay 3 (% Remaining at 24 h): A (A: <25% of the tested compound remaining)

## CCCC(=O)OC[C@H]1O[C@@H](OC)[C@H](OC(=O)CCC)[C@@H](OC(=O)CCC)[C@H]1OC(=O)CCC [Compound 93, [(2R,3S,4S,5R,6R)-3,4,5-tris(butanoyloxy)-6-methoxyoxan-2-yl]methyl Butanoate]
[1]
  Assay 2 (SIF) (% @ Remaining 4 hours): A (A: <25% of the tested compound remaining)
[2]
  Assay 3 (% Remaining at 24 h): A (A: <25% of the tested compound remaining)

## CCC(=O)OC[C@H]1O[C@@H](OC)[C@H](OC(=O)CC)[C@@H](OC(=O)CC)[C@H]1OC(=O)CC [Compound 94, [(2R,3S,4S,5R,6R)-6-methoxy-3,4,5-tris(propanoyloxy)oxan-2-yl]methyl Propanoate]
[1]
  Assay 2 (SIF) (% @ Remaining 4 hours): A (A: <25% of the tested compound remaining)
[2]
  Assay 3 (% Remaining at 24 h): A (A: <25% of the tested compound remaining)

## C[C@@H]1O[C@@H](OC(=O)CCc2c[nH]c3ccccc23)[C@@H](OC(=O)CCc2c[nH]c3ccccc23)[C@H](OC(=O)CCc2c[nH]c3ccccc23)[C@@H]1OC(=O)CCc1c[nH]c2ccccc12 [Compound 97, (2S,3S,4R,5R,6S)-3,4,5-tris({[3-(1H-indol-3-yl)propanoyl]oxy})-6-methyloxan-2-yl 3-(1H-indol-3-yl)propanoate]
[1]
  Assay 2 (SIF) (% @ Remaining 4 hours): A (A: <25% of the tested compound remaining)
[2]
  Assay 3 (% Remaining at 24 h): A (A: <25% of the tested compound remaining)

## CCCC(=O)O[C@@H]1[C@@H](OC(=O)CCC)[C@H](OC)OC[C@H]1OC(=O)CCC [Compound 121, (2R,3R,4S,5R)-4,5-bis(butanoyloxy)-2-methoxyoxan-3-yl Butanoate]
[1]
  Assay 2 (SIF) (% @ Remaining 4 hours): A (A: <25% of the tested compound remaining)
[2]
  Assay 3 (% Remaining at 24 h): A (A: <25% of the tested compound remaining)

## CCC(=O)O[C@H]1[C@H](OC(=O)CC)[C@H](OC(=O)CCc2c[nH]c3ccccc23)O[C@@H](C)[C@H]1OC(=O)CC [Compound 155, (2S,3S,4R,5R,6S)-6-methyl-3,4,5-tris(propanoyloxy)oxan-2-yl 3-(1H-indol-3-yl)propanoate]
[1]
  Assay 2 (SIF) (% @ Remaining 4 hours): C (C: >75% of the tested compound remaining)
[2]
  Assay 3 (% Remaining at 24 h): A (A: <25% of the tested compound remaining)

## O=C(Cc1c[nH]c2ccccc12)O[C@@H]1OC[C@H](OC(=O)Cc2c[nH]c3ccccc23)[C@H](OC(=O)Cc2c[nH]c3ccccc23)[C@H]1OC(=O)Cc1c[nH]c2ccccc12 [Compound 178, (2S,3R,4S,5S)-3,4,5-tris({[2-(1H-indol-3-yl)acetyl]oxy})oxan-2-yl 2-(1H-indol-3-yl)acetate]
[2]
  Assay 3 (% Remaining at 24 h): A (A: <25% of the tested compound remaining)

## O=C(CCc1c[nH]c2ccccc12)O[C@H]1OC[C@H](OC(=O)CCc2c[nH]c3ccccc23)[C@H](OC(=O)CCc2c[nH]c3ccccc23)[C@H]1OC(=O)CCc1c[nH]c2ccccc12 [Compound 181, (2R,3R,4S,5S)-3,4,5-tris({[3-(1H-indol-3-yl)propanoyl]oxy})oxan-2-yl 3-(1H-indol-3-yl)propanoate]
[1]
  Assay 2 (SIF) (% @ Remaining 4 hours): A (A: <25% of the tested compound remaining)
[2]
  Assay 3 (% Remaining at 24 h): A (A: <25% of the tested compound remaining)

## CCCC(=O)O[C@H]1[C@H](OC(=O)CCC)COC(O)[C@@H]1OC(=O)CCC (stereo partly drawn) [Compound 190, (3R,4S,5R)-4,5-bis(butanoyloxy)-2-hydroxyoxan-3-yl Butanoate]
[1]
  Assay 2 (SIF) (% @ Remaining 4 hours): A (A: <25% of the tested compound remaining)
[2]
  Assay 3 (% Remaining at 24 h): A (A: <25% of the tested compound remaining)

## CCCC(=O)Oc1cc(OC(=O)CCC)c2c(=O)cc(-c3ccc(OC(=O)CCC)c(OC(=O)CCC)c3)oc2c1 [Compound 202, 2-[3,4-bis(butanoyloxy)phenyl]-5-(butanoyloxy)-4-oxo-4H-chromen-7-yl Butanoate]
[3]
  Assay 1 (SGF) (% Remaining @ 1 hours): C (C: >75% of the tested compound remaining)
[1]
  Assay 2 (SIF) (% @ Remaining 4 hours): A (A: <25% of the tested compound remaining)

## [2H]C([2H])([2H])C([2H])([2H])CC(=O)O[C@@H]1[C@@H](OC(=O)CC([2H])([2H])C([2H])([2H])[2H])[C@H](Oc2ccc(N)cc2C(=O)O)OC[C@H]1OC(=O)CC([2H])([2H])C([2H])([2H])[2H] [Compound 230, 5-amino-2-{[(2S,3R,4S,5R)-3,4,5-tris[(3,3,4,4,4-^2H5)butanoyloxy]oxan-2-yl]oxy}benzoic Acid]
[2]
  Assay 3 (% Remaining at 24 h): B (B: 25-75% of the tested compound remaining)

## [2H]C([2H])([2H])C([2H])([2H])CC(=O)O[C@@H]1[C@@H](OC(=O)CC([2H])([2H])C([2H])([2H])[2H])[C@H](Oc2ccc(N)cc2C(=O)O)OC[C@H]1O [Compound 234, 5-amino-2-{[(2S,3R,4S,5R)-3,4-bis[(3,3,4,4,4-^2H5)butanoyloxy]-5-hydroxyoxan-2-yl]oxy}benzoic Acid]
[2]
  Assay 3 (% Remaining at 24 h): B (B: 25-75% of the tested compound remaining)

## O=C(CCc1c[nH]c2ccccc12)Oc1cc(C(=O)O)cc(OC(=O)CCc2c[nH]c3ccccc23)c1OC(=O)CCc1c[nH]c2ccccc12 [Compound 240, 3,4,5-tris({[3-(1H-indol-3-yl)propanoyl]oxy})benzoic Acid]
[3]
  Assay 1 (SGF) (% Remaining @ 1 hours): A (A: <25% of the tested compound remaining)
[1]
  Assay 2 (SIF) (% @ Remaining 4 hours): C (C: >75% of the tested compound remaining)

## CCC(=O)Oc1ccc2c(c1)oc(=O)c1cc(OC(=O)CC)c(OC(=O)CC)cc12 [Compound 242, [6-oxo-8,9-di(propanoyloxy)benzo[c]chromen-3-yl] propanoate]
[3]
  Assay 1 (SGF) (% Remaining @ 1 hours): C (C: >75% of the tested compound remaining)
[1]
  Assay 2 (SIF) (% @ Remaining 4 hours): A (A: <25% of the tested compound remaining)

## O=C(CCc1c[nH]c2ccccc12)Oc1ccc2c(c1)oc(=O)c1cc(OC(=O)CCc3c[nH]c4ccccc34)c(OC(=O)CCc3c[nH]c4ccccc34)cc12 [Compound 246, 8,9-bis({[3-(1H-indol-3-yl)propanoyl]oxy})-6-oxo-6H-benzo[c]chromen-3-yl 3-(1H-indol-3-yl)propanoate]
[1]
  Assay 2 (SIF) (% @ Remaining 4 hours): B (B: 25-75% of the tested compound remaining)
[2]
  Assay 3 (% Remaining at 24 h): B (B: 25-75% of the tested compound remaining)

## CCCC(=O)Oc1ccc2c(c1)oc(=O)c1cc(OC(=O)CCC)c(OC(=O)CCC)cc12 [Compound 248, 8,9-bis(butanoyloxy)-6-oxo-6H-benzo[c]chromen-3-yl Butanoate]
[2]
  Assay 3 (% Remaining at 24 h): A (A: <25% of the tested compound remaining)

## O=C(CCc1c[nH]c2ccccc12)O[C@@H]1[C@H](OC(=O)CCc2c[nH]c3ccccc23)C=C(C(=O)O)C[C@H]1OC(=O)CCc1c[nH]c2ccccc12 [Compound 253, (3R,4S,5R)-3,4,5-tris({[3-(1H-indol-3-yl)propanoyl]oxy})cyclohex-1-ene-1-carboxylic Acid]
[3]
  Assay 1 (SGF) (% Remaining @ 1 hours): B (B: 25-75% of the tested compound remaining)
[1]
  Assay 2 (SIF) (% @ Remaining 4 hours): B (B: 25-75% of the tested compound remaining)

## CCC(=O)O[C@@H]1[C@H](OC(=O)CC)C=C(C(=O)O)C[C@H]1OC(=O)CC [Compound 254, (3R,4S,5R)-3,4,5-tris(propanoyloxy)cyclohex-1-ene-1-carboxylic Acid]
[2]
  Assay 3 (% Remaining at 24 h): B (B: 25-75% of the tested compound remaining)

## O=C(Cc1c[nH]c2ccccc12)Oc1ccc(/C=C/c2cc(OC(=O)Cc3c[nH]c4ccccc34)cc(OC(=O)Cc3c[nH]c4ccccc34)c2)cc1 [Compound 260, 4-[(1E)-2-[3,5-bis({[2-(1H-indol-3-yl)acetyl]oxy})phenyl]ethenyl]phenyl 2-(1H-indol-3-yl)acetate]
[2]
  Assay 3 (% Remaining at 24 h): A (A: <25% of the tested compound remaining)

Source: US10953027B2, “Active agents and methods of their use for the treatment of metabolic disorders and nonalcoholic fatty liver disease” (Flagship Pioneering Innovations V, Inc., priority 2018, dated 2021)
